Test results as given in US12662489B2 (Sitryx Therapeutics Limited, priority 2023, dated 2026).

Assays:
[1] = target: T1, MTHFD1 recombinant human enzyme (Homo sapiens, UniProt P11586); experiment: MTHFD1 inhibition assay (NAD(P)H-Glo luminescence); conditions: MTHFD1 IC50, recombinant human enzyme 200 nM, NADP, band
T1 sequence (P11586 2-291 limits assumed): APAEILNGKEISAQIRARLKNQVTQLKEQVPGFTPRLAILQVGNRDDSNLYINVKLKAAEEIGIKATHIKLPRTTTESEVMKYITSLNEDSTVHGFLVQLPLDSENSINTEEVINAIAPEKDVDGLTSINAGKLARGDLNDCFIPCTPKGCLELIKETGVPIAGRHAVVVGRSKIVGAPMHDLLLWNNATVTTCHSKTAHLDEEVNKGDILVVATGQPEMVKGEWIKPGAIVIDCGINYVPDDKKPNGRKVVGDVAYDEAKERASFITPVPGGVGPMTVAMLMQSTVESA

[2] = target: T2, MTHFD2 recombinant human enzyme (Homo sapiens, UniProt P13995); experiment: MTHFD2 inhibition assay (NAD(P)H-Glo luminescence); conditions: for MTHFD1/MTHFD2 IC50 ratio: selectivity of MTHFD2 inhibition over MTHFD1, band
T2 sequence (P13995 36-350): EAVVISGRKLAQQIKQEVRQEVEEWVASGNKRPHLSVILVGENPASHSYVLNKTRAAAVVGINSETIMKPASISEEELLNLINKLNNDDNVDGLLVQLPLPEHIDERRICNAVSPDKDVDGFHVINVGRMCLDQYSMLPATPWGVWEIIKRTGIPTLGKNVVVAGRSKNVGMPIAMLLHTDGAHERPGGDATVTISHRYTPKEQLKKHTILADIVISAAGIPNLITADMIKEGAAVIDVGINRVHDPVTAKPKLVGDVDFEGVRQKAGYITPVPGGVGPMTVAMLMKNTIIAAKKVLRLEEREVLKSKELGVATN

IC50 [1] [nM] | IC50 [2] [nM] | MTHFD1/MTHFD2 IC50 ratio [2] | SMILES
1 to 10 | 1 to 10 | F (<3) | COC[C@H]1CN(c2cc(C)c3c4c(c(=O)oc3c2C)CN(C(=O)c2ccc(C(=O)NS(=O)(=O)N3CCCC3)c(O[C@@H]3C[C@@H]5C[C@@H]5C3)c2F)CC4)CCN1C [Example 35, 2-(((1R,3r,5S)-bicyclo[3.1.0]hexan-3-yl)oxy)-3-fluoro-4-(8-((R)-3-(methoxymethyl)-4-methylpiperazin-1-yl)-7,10-dimethyl-5-oxo-1,3,4,5-tetrahydro-2H-chromeno[3,4-c]pyridine-3-carbonyl)-N-(pyrrolidin-1-ylsulfonyl)benzamide]
10 to 100 | 10 to 100 | F (<3) | COC[C@H]1CN(c2cc(C)c3c4c(c(=O)oc3c2C)CN(C(=O)c2ccc(C(=O)NS(=O)(=O)N3CC5CC5C3)c(OC3CC3)c2F)CC4)CCN1C (stereo partly drawn) [Example 207, N-((3-azabicyclo[3.1.0]hexan-3-yl)sulfonyl)-2-cyclopropoxy-3-fluoro-4-(8-((R)-3-(methoxymethyl)-4-methylpiperazin-1-yl)-7,10-dimethyl-5-oxo-1,3,4,5-tetrahydro-2H-chromeno[3,4-c]pyridine-3-carbonyl)benzamide]
1000 to 5000 | 100 to 1000 | H (>9.0 to 30) | COC[C@H]1CN(c2cc(C)c3c4c(c(=O)oc3c2C)CN(C(=O)c2cc(OC)c(C(=O)NS(=O)(=O)N3CCCC3)c(C(F)(F)F)c2)CC4)CCN1C [Example 154, (R)-2-methoxy-4-(8-(3-(methoxymethyl)-4-methylpiperazin-1-yl)-7,10-dimethyl-5-oxo-1,3,4,5-tetrahydro-2H-chromeno[3,4-c]pyridine-3-carbonyl)-N-(pyrrolidin-1-ylsulfonyl)-6-(trifluoromethyl)benzamide]
10 to 100 | 1 to 10 | H (>9.0 to 30) | CCOc1c(C(=O)NS(=O)(=O)N2CCCC2)ccc(C(=O)N2CCc3c(c(=O)oc4c(C)c(N5CCN(C)[C@@H](COC)C5)cc(Cl)c34)C2)c1F [Example 258, (R)-4-(10-chloro-8-(3-(methoxymethyl)-4-methylpiperazin-1-yl)-7-methyl-5-oxo-1,3,4,5-tetrahydro-2H-chromeno[3,4-c]pyridine-3-carbonyl)-2-ethoxy-3-fluoro-N-(pyrrolidin-1-ylsulfonyl)benzamide]
10 to 100 | 1 to 10 | H (>9.0 to 30) | COC[C@H]1CN(c2cc(C)c3c4c(c(=O)oc3c2C)CN(C(=O)c2ccc(C(=O)NS(=O)(=O)N3CCCC3)c(N3CCC(F)(F)C3)c2)CC4)CCN1C [Example 92, (R)-2-(3,3-difluoropyrrolidin-1-yl)-4-(8-(3-(methoxymethyl)-4-methylpiperazin-1-yl)-7,10-dimethyl-5-oxo-1,3,4,5-tetrahydro-2H-chromeno[3,4-c]pyridine-3-carbonyl)-N-(pyrrolidin-1-ylsulfonyl)benzamide]

Second part, the compound before the results:

SMILES | IC50 [1] [nM] | IC50 [2] [nM] | MTHFD1/MTHFD2 IC50 ratio [2]
COC[C@H]1CN(c2ccc3c4c(c(=O)oc3c2Cl)CN(C(=O)c2ccc(C(=O)NS(=O)(=O)C3(C)CC3)c(OC3CCCC3)c2F)CC4)CCN1C [Example 57, (R)-4-(7-chloro-8-(3-(methoxymethyl)-4-methylpiperazin-1-yl)-5-oxo-1,3,4,5-tetrahydro-2H-chromeno[3,4-c]pyridine-3-carbonyl)-2-(cyclopentyloxy)-3-fluoro-N-((1-methylcyclopropyl)sulfonyl)benzamide] | 1 to 10 | 1 to 10 | F (<3)
COC[C@H]1CN(c2cc(C)c3c4c(c(=O)oc3c2C)CN(C(=O)c2ccc(C(=O)NS(=O)(=O)N(C)C)c(OC3CCC(F)(F)CC3)c2F)CC4)CCN1C [Example 85, (R)-2-((4,4-difluorocyclohexyl)oxy)-N-(N,N-dimethylsulfamoyl)-3-fluoro-4-(8-(3-(methoxymethyl)-4-methylpiperazin-1-yl)-7,10-dimethyl-5-oxo-1,3,4,5-tetrahydro-2H-chromeno[3,4-c]pyridine-3-carbonyl)benzamide] | 1 to 10 | 1 to 10 | F (<3)
COC[C@H]1CN(c2cc(Cl)c3c4c(c(=O)oc3c2C)CN(C(=O)c2cc(N(C)C)c(C(=O)NS(=O)(=O)N3CC[C@@H](OC)C3)cc2F)CC4)CCN1C [Example 285, 4-(10-chloro-8-((R)-3-(methoxymethyl)-4-methylpiperazin-1-yl)-7-methyl-5-oxo-1,3,4,5-tetrahydro-2H-chromeno[3,4-c]pyridine-3-carbonyl)-2-(dimethylamino)-5-fluoro-N-(((R)-3-methoxypyrrolidin-1-yl)sulfonyl)benzamide] | 100 to 1000 | 10 to 100 | H (>9.0 to 30)
COC[C@H]1CN(c2cc(C)c3c4c(c(=O)oc3c2C)CN(C(=O)c2ccc(C(=O)NS(=O)(=O)C3(C)CC3)c(OC3C[C@@H]5C[C@@H]5C3)c2F)CC4)CCN1C (stereo partly drawn) [Example 37, 2-(((1R,3r,5S)-bicyclo[3.1.0]hexan-3-yl)oxy)-3-fluoro-4-(8-((R)-3-(methoxymethyl)-4-methylpiperazin-1-yl)-7,10-dimethyl-5-oxo-1,3,4,5-tetrahydro-2H-chromeno[3,4-c]pyridine-3-carbonyl)-N-((1-methylcyclopropyl)sulfonyl)benzamide] | 1 to 10 | 1 to 10 | F (<3)
COC[C@H]1CN(c2ccc3c4c(c(=O)oc3c2C)CN(C(=O)c2cc(F)c(C(=O)NS(=O)(=O)N(C)C)c(N3CC5CC5C3)c2)CC4)CCN1C (stereo partly drawn) [Example 27, 2-(3-azabicyclo[3.1.0]hexan-3-yl)-N-(N,N-dimethylsulfamoyl)-6-fluoro-4-(8-((R)-3-(methoxymethyl)-4-methylpiperazin-1-yl)-7-methyl-5-oxo-1,3,4,5-tetrahydro-2H-chromeno[3,4-c]pyridine-3-carbonyl)benzamide] | 1 to 10 | 1 to 10 | F (<3)
COC[C@H]1CN(c2ccc3c4c(c(=O)oc3c2C)CN(C(=O)c2ccc(C(=O)NS(=O)(=O)C3(C)CC3)c(OC3CCC3)c2F)CC4)CCN1C [Example 42, (R)-2-cyclobutoxy-3-fluoro-4-(8-(3-(methoxymethyl)-4-methylpiperazin-1-yl)-7-methyl-5-oxo-1,3,4,5-tetrahydro-2H-chromeno[3,4-c]pyridine-3-carbonyl)-N-((1-methylcyclopropyl)sulfonyl)benzamide] | 1 to 10 | 1 to 10 | G (^ 3 to 9.0)
COC[C@H]1CN(c2cc(Cl)c3c4c(c(=O)oc3c2C)CN(C(=O)c2ccc(C(=O)NS(=O)(=O)N3CCC[C@H]3COC)c(OC)c2)CC4)CCN1C [Example 283, 4-(10-chloro-8-((R)-3-(methoxymethyl)-4-methylpiperazin-1-yl)-7-methyl-5-oxo-1,3,4,5-tetrahydro-2H-chromeno[3,4-c]pyridine-3-carbonyl)-2-methoxy-N-(((S)-2-(methoxymethyl)pyrrolidin-1-yl)sulfonyl)benzamide] | 1000 to 5000 | 10 to 100 | H (>9.0 to 30)
COC[C@H]1CN(c2ccc3c4c(c(=O)oc3c2Cl)CN(C(=O)c2ccc(C(=O)NS(=O)(=O)N(C)C(C)C)c(O[C@@H]3C[C@@H]5C[C@@H]5C3)c2F)CC4)CCN1C [Example 65, 2-(((1R,3r,5S)-bicyclo[3.1.0]hexan-3-yl)oxy)-4-(7-chloro-8-((R)-3-(methoxymethyl)-4-methylpiperazin-1-yl)-5-oxo-1,3,4,5-tetrahydro-2H-chromeno[3,4-c]pyridine-3-carbonyl)-3-fluoro-N-(N-isopropyl-N-methylsulfamoyl)benzamide] | 1 to 10 | 10 to 100 | F (<3)
COC[C@H]1CN(c2cc(Cl)c3c4c(c(=O)oc3c2C)CN(C(=O)c2cc(N(C)C)c(C(=O)NS(=O)(=O)N(C3CC3)C3CC3)cc2F)CC4)CCN1C [Example 277, (R)-4-(10-chloro-8-(3-(methoxymethyl)-4-methylpiperazin-1-yl)-7-methyl-5-oxo-1,3,4,5-tetrahydro-2H-chromeno[3,4-c]pyridine-3-carbonyl)-N-(N,N-dicyclopropylsulfamoyl)-2-(dimethylamino)-5-fluorobenzamide] | 100 to 1000 | 10 to 100 | H (>9.0 to 30)
COC[C@H]1CN(c2cc(Cl)c3c4c(c(=O)oc3c2C)CN(C(=O)c2cc(N(C)C)c(C(=O)NS(=O)(=O)N(C)C3CC3)cc2F)CC4)CCN1C [Example 323, (R)-4-(10-chloro-8-(3-(methoxymethyl)-4-methylpiperazin-1-yl)-7-methyl-5-oxo-1,3,4,5-tetrahydro-2H-chromeno[3,4-c]pyridine-3-carbonyl)-N-(N-cyclopropyl-N-methylsulfamoyl)-2-(dimethylamino)-5-fluorobenzamide] | 100 to 1000 | 1 to 10 | J (>30)
